Two compounds from US10500179B2, “Glycine for use in tolerance induction in allergic patients” (N. V. Nutricia, priority 2015, dated 2019) can be followed below.

Assay [1] relates to human peripheral blood mononuclear cells (PBMCs). In words: LPS induced TNF-α synthesis by human PBMCs (ELISA). The assay is classed as cell-based. The settings on record: FIG. 3. From the text:
The next experiment done by the inventor relates to the question whether amino acids are able to enhance immune effects of free glycine. To investigate this, human peripheral blood mononuclear cells (PBMCs) were stimulated with lipopolysaccharide (LPS) in the presence of free glycine in combination with different levels of free glutamine In short: Human PBMCs were obtained from buffy coats supplied by the blood bank and prepared by Ficoll gradient centrifugation according to standard methods. The recovered PBMCs were washed with PBS and cultured in RPMI-1640 containing, penicillin, streptomycin and 5% Fetal call serum (FCS), 1.5E5 cells/well (96-wells culture plate). The cells were stimulated with LPS (E. coli, 055:B5, 10 ng/ml) for 20 hr after 1 hr pre-incubation with different levels of glycine in combination with different levels of glutamine. The tested levels of glycine and glutamine were also tested separately. TNF-α levels were detected in the supernatant of the cells using an ELISA kit.

The subject of assay [2] is RBL-2H3 cells. As to conditions: glycine concentration series from 500 μg/ml, 20 hours incubation, concentration dependent. On the procedure:
RBL-2H3 cells were sensitized by 100 ng/ml mouse IgE α-dinitrophenyl in culture medium (DMEM with 10% FBS and 1% penicillin/[…]) and plate out 100 μl/well in a 96-well flat bottom plate. After 18 hrs of culturing at 37° C. with 5% CO2, the cells were washed 4 times with 200 μl Tyrode's buffer (130 mM NaCl, […], 1.4 mM CaCl2, 1 mM MgCl2, 5.6 mM glucose, 10 mM HEPES, and 0.1% bovine serum albumin in distilled water, pH 7.4). 25 μl glycine in a concentration series starting form 500 μg/ml and diluted 1:1 in Tyrode's buffer (component), 25 μl Tyrode's buffer (controls) or 25 μl quercetin 100 μM (positive control) were added to the cells. 25 μl of DNP-BSA (100 ng/ml) and 50 μl Tyrode's buffer were added to each component well. After 20 hours incubation at 37° C. with 5% CO2 90 μl of the cells supernatant was collected and stored at −80° C. for cytokine analysis by multiplex bead immunoassay.

The subject of assay [3] is Female C3H/HeOuJ mice sensitized against bovine whey protein. The settings on record: oral gavage 50 or 100 mg/mouse 24 and 4 hours before sensitization.

Take `NC(=O)CC[C@H](N)C(=O)O` [glutamine]: the “effect of glutamine on glycine inhibition of LPS induced TNF-α synthesis” value in assay [1] (glutamine combined with glycine at specific ratios, LPS 10 ng/ml 20 hr) is on record as “enhanced this effect synergistically”.

As for `NCC(=O)O` [Glycine, glycine], in assay [2] (FIG. 1A), the “crosslinking induced TNFα production” value is “inhibits”. Moreover, the “crosslinking induced IL-4 production” value in assay [2] (FIG. 1B) is “inhibits”. The “crosslinking induced IL-13 production” value in assay [2] (FIG. 1C) is “inhibits”. Besides, the “LPS induced TNF-α synthesis by PBMCs” value in assay [1] (LPS 10 ng/ml for 20 hr after 1 hr pre-incubation) was “inhibited”. Moreover, in assay [3] (effect concentration dependent, FIG. 2A), the “allergic skin response (ear swelling) after intradermal whey injection” value is “inhibits the allergy development”. The “mMCP1 release (by intestinal mast cells) after an oral allergen challenge” value in assay [3] (serum one hour after 50 mg whey oral challenge, FIG. 2B) is “inhibits allergy development”. Besides, the “production of whey-specific IgE” value in assay [3] (serum, ELISA, FIG. 2C) was “inhibits”.
